Reference: BindingDB's records for doi:10.1016/j.bmc.2010.10.023 (Chugai Pharmaceutical, 2010)

Assay: Antagonist activity at AR in human bicalutamide-resistant LNCAP cells assessed as inhibition of cell proliferation after 6 days
Work on `CC1(C)C(=O)N(c2ccc(C#N)c(Cl)c2)C(=S)N1c1cccc(S(N)(=O)=O)c1` [3-[3-(3-Chloro-4-cyanophenyl)-5,5-dimethyl-4-oxo-2-thioxoimidazolidin-1-yl]benzenesulfonamide] yielded an IC50 of 100 nM. `CC1(C)C(=O)N(c2ccc(C#N)c(Cl)c2)C(=S)N1CCCS(N)(=O)=O` [3-[3-(3-Chloro-4-cyanophenyl)-5,5-dimethyl-4-oxo-2-thioxoimidazolidin-1-yl]propane-1-sulfonamide] showed an IC50 of 10 nM. For `CC1(C)C(=O)N(c2ccc(C#N)c(C(F)(F)F)c2)C(=S)N1c1cccc(S(N)(=O)=O)c1` [3-[3-(4-Cyano-3-trifluoromethylphenyl)-5,5-dimethyl-4-oxo-2-thioxoimidazolidin-1-yl]benzenesulfonamide], the IC50 was 100 nM. Molecule `CC1(C)C(=O)N(c2ccc(C#N)c(C(F)(F)F)c2)C(=S)N1c1ccccc1` [4-(3-Phenyl-4,4-dimethyl-5-oxo-2-thioxoimidazolidin-1-yl)-2-trifluoromethylbenzonitrile] has an IC50 of 100 nM. Molecule `CC1(C)C(=O)N(c2ccc(C#N)c(C(F)(F)F)c2)C(=S)N1c1ccnc(S(N)(=O)=O)c1` [4-[3-(4-Cyano-3-trifluoromethylphenyl)-5,5-dimethyl-4-oxo-2-thioxoimidazolidin-1-yl]pyridine-2-sulfonic acid amide] has an IC50 of 80 nM. In the case of `CC1(C)C(=O)N(c2ccc(C#N)c(Cl)c2)C(=S)N1c1cncc(S(N)(=O)=O)c1` [5-[3-(3-Chloro-4-cyanophenyl)-5,5-dimethyl-4-oxo-2-thioxoimidazolidin-1-yl]pyridine-3-sulfonic acid amide], the IC50 is reported as 50 nM. With `CC1(C)C(=O)N(c2ccc(C#N)c(C(F)(F)F)c2)C(=S)N1c1cncc(S(N)(=O)=O)c1` [5-[3-(4-Cyano-3-trifluoromethylphenyl)-5,5-dimethyl-4-oxo-2-thioxoimidazolidin-1-yl]pyridine-3-sulfonic acid amide] the IC50 was 30 nM. `CC1(C)C(=O)N(c2ccc(C#N)c(Cl)c2)C(=S)N1c1cccc(S(N)(=O)=O)n1` [6-[3-(3-Chloro-4-cyanophenyl)-5,5-dimethyl-4-oxo-2-thioxoimidazolidin-1-yl]pyridine-2-sulfonic acid amide] gave an IC50 of 100 nM. With `CC1(C)C(=O)N(c2ccc(C#N)c(C(F)(F)F)c2)C(=S)N1c1cccc(S(N)(=O)=O)n1` [6-[3-(4-Cyano-3-trifluoromethylphenyl)-5,5-dimethyl-4-oxo-2-thioxoimidazolidin-1-yl]pyridine-2-sulfonic acid amide] the IC50 was 100 nM.
